From patent publication US20030153081A1, “Viral core protein-cationic lipid-nucleic acid-delivery complexes” (priority 1999, published 2003)

Tested on: plasmid DNA (pCMVβ)
Assay: gel retardation assay (DNA binding analysis)
Method: One microgram of pCMVβ was incubated with 0 μg (lane 2), 5 μg (lane 3), 10 μg (lane 4), 15 μg (lane 5), 20 μg (lane 6), 25 μg (lane 7) and 30 μg (lane 8) of BSA for 10 minutes at room temperature in 1× HBS. Samples were then analyzed on a 1% agarose gel for altered mobility.
When ratios of 0.5 (w/w) or greater were used, however, migration of both forms of pDNA was severely retarded.
C). The Polyomavirus protein Vp1 was much less efficient at preventing pDNA migration. pCMVβ (1 μg) was incubated with 2 μg (lane 2), 4 μg (lane 3), 6 μg (lane 4), 8 μg (lane 5), 16 μg (lane 6), 32 μg (lane 7) and 0 μg (lane 8) Vp1. Only ratios of 6 or higher (protein: pDNA, w/w) caused significant retardation of supercoiled pDNA (lane 6, lower band). Also, not until a ratio of 32 (w/w) was used was there any effect on relaxed pDNA (lane 7, upper band). In all gels lane 1 corresponds to 1 Kb DNA marker (BRL).
The purified peptides were reconstituted in sterile distilled H2O at 3 mg/mL. Peptide and pDNA were complexed in 20 μL HEPES buffered saline (137 mM NaCl, 5 mM KCl, 0.75 mM Na2HPO4, 19 mM HEPES, pH 7.4) for 20 minutes at room temperature. Peptide: pDNA complexes were subsequently analyzed by agarose gel electrophoresis (1%). Control incubations for general macromolecular pDNA interactions were performed with varying amounts of molecular biology grade purified bovine serum albumin (Sigma).
Varying amounts of purified peptide were incubated at room temperature in HBS for approximately 10 minutes and then analyzed by agarose gel electrophoresis. Without the addition of peptide, supercoiled and relaxed circular plasmid DNA (pDNA) migrated in the expected manner (FIG. 1, lane 8).

## H-MRRAHHRRRRASHRRMRGG-OH [Mu1]
1 μg pCMVβ, 1% agarose gel
  ratio of protein to pDNA giving slight retardation of supercoiled pDNA, relaxed form not altered: 0.25 w/w
1 μg pCMVβ, 1x HBS, 1% agarose gel
  ratio of protein to pDNA at or above which migration of both forms of pDNA was severely retarded: ≥ 0.5 w/w
Mu1 vs Vp1
  concentration retarding electrophoretic mobility of plasmid DNA relative to Vp1: 1/60
Gel retardation complexes, 20 μL
  concentration in solution, pDNA retardation: 25 ng/mL
